Active and inactive are the calls of the source. How the calls were made is not given here.
System: CCRIS mutagenicity, Ames/micronucleus/aberration tests
Assay: CCRIS mutagenicity studies
[1] = Test System: AMES SALMONELLA TYPHIMURIUM, Strain/Indicator: TA98, Metabolic Activation: NONE, Method: STANDARD PLATE
[2] = Test System: AMES SALMONELLA TYPHIMURIUM, Strain/Indicator: TA100, Metabolic Activation: NONE, Method: STANDARD PLATE

## CC(=O)Nc1ccc2[nH]c3ccccc3c2c1[N+](=O)[O-]
[1]
  mutagenic call: active; positive
Test System: AMES SALMONELLA TYPHIMURIUM, Strain/Indicator: TA98, Metabolic Activation: RAT, LIVER, S-9, PHENOBARBITAL, Method: STANDARD PLATE
  mutagenic call: active; positive
[2]
  mutagenic call: inactive; negative
Test System: AMES SALMONELLA TYPHIMURIUM, Strain/Indicator: TA100, Metabolic Activation: RAT, LIVER, S-9, PHENOBARBITAL, Method: STANDARD PLATE
  mutagenic call: inactive; negative
Test System: AMES SALMONELLA TYPHIMURIUM, Strain/Indicator: TA1537, Metabolic Activation: NONE, Method: STANDARD PLATE
  mutagenic call: inactive; negative
Test System: AMES SALMONELLA TYPHIMURIUM, Strain/Indicator: TA1537, Metabolic Activation: RAT, LIVER, S-9, PHENOBARBITAL, Method: STANDARD PLATE
  mutagenic call: inactive; negative
Test System: AMES SALMONELLA TYPHIMURIUM, Strain/Indicator: TA1538, Metabolic Activation: NONE, Method: STANDARD PLATE
  mutagenic call: active; positive
Test System: AMES SALMONELLA TYPHIMURIUM, Strain/Indicator: TA1538, Metabolic Activation: RAT, LIVER, S-9, PHENOBARBITAL, Method: STANDARD PLATE
  mutagenic call: active; positive
Test System: AMES SALMONELLA TYPHIMURIUM, Strain/Indicator: TA1977, Metabolic Activation: NONE, Method: STANDARD PLATE
  mutagenic call: inactive; negative
Test System: AMES SALMONELLA TYPHIMURIUM, Strain/Indicator: TA1977, Metabolic Activation: RAT, LIVER, S-9, PHENOBARBITAL, Method: STANDARD PLATE
  mutagenic call: inactive; negative

## Oc1ccc2ccccc2c1N=Nc1ccccc1
End Point: IN VITRO CHROMOSOMAL ABERRATIONS, Test System: CHO CELLS, Metabolic Activation: NONE
  mutagenic call: inactive; negative
End Point: IN VITRO CHROMOSOMAL ABERRATIONS, Test System: CHO CELLS, Metabolic Activation: RAT, LIVER, S-9, AROCLOR 1254
  mutagenic call: inactive; negative
Test System: AMES SALMONELLA TYPHIMURIUM, Strain/Indicator: TA97, Metabolic Activation: HAMSTER, LIVER, S-9, AROCLOR 1254 (10%), Method: PREINCUBATION
  mutagenic call: inactive; negative
Test System: AMES SALMONELLA TYPHIMURIUM, Strain/Indicator: TA97, Metabolic Activation: NONE, Method: PREINCUBATION
  mutagenic call: inactive; negative
Test System: AMES SALMONELLA TYPHIMURIUM, Strain/Indicator: TA97, Metabolic Activation: RAT, LIVER, S-9, AROCLOR 1254 (10%), Method: PREINCUBATION
  mutagenic call: active; positive
Test System: AMES SALMONELLA TYPHIMURIUM, Strain/Indicator: TA98, Metabolic Activation: HAMSTER, LIVER, S-9, AROCLOR 1254 (10%), Method: PREINCUBATION
  mutagenic call: inactive; negative
Test System: AMES SALMONELLA TYPHIMURIUM, Strain/Indicator: TA98, Metabolic Activation: NONE, Method: PREINCUBATION
  mutagenic call: inactive; negative
Test System: AMES SALMONELLA TYPHIMURIUM, Strain/Indicator: TA98, Metabolic Activation: RAT, BLADDER, S-9, PCB, Method: FLUCTUATION TEST
  mutagenic call: inactive; negative
Test System: AMES SALMONELLA TYPHIMURIUM, Strain/Indicator: TA98, Metabolic Activation: RAT, LIVER, S-9, AROCLOR 1254 (10%), Method: PREINCUBATION
  mutagenic call: active; positive
Test System: AMES SALMONELLA TYPHIMURIUM, Strain/Indicator: TA100, Metabolic Activation: HAMSTER, LIVER, S-9, AROCLOR 1254 (10%), Method: PREINCUBATION
  mutagenic call: inactive; negative
Test System: AMES SALMONELLA TYPHIMURIUM, Strain/Indicator: TA100, Metabolic Activation: NONE, Method: PREINCUBATION
  mutagenic call: inactive; negative
Test System: AMES SALMONELLA TYPHIMURIUM, Strain/Indicator: TA100, Metabolic Activation: RAT, BLADDER, S-9, PCB, Method: FLUCTUATION TEST
  mutagenic call: inactive; negative
Test System: AMES SALMONELLA TYPHIMURIUM, Strain/Indicator: TA100, Metabolic Activation: RAT, LIVER, S-9, AROCLOR 1254 (10%), Method: PREINCUBATION
  mutagenic call: inactive; negative
Test System: AMES SALMONELLA TYPHIMURIUM, Strain/Indicator: TA1535, Metabolic Activation: HAMSTER, LIVER, S-9, AROCLOR 1254 (10%), Method: PREINCUBATION
  mutagenic call: inactive; negative
Test System: AMES SALMONELLA TYPHIMURIUM, Strain/Indicator: TA1535, Metabolic Activation: NONE, Method: PREINCUBATION
  mutagenic call: inactive; negative
Test System: AMES SALMONELLA TYPHIMURIUM, Strain/Indicator: TA1535, Metabolic Activation: RAT, LIVER, S-9, AROCLOR 1254 (10%), Method: PREINCUBATION
  mutagenic call: inactive; negative
Test System: AMES SALMONELLA TYPHIMURIUM, Strain/Indicator: TA1538, Metabolic Activation: HAMSTER, LIVER, S-9, AROCLOR 1254, Method: STANDARD PLATE
  mutagenic call: active; positive

## O=C(/C=C/c1ccc(-c2ccccc2)cc1)c1ccccc1
[1]
  mutagenic call: inactive; negative
Test System: AMES SALMONELLA TYPHIMURIUM, Strain/Indicator: TA98, Metabolic Activation: RAT, LIVER, S-9, AROCLOR 1254, Method: STANDARD PLATE
  mutagenic call: inactive; negative
[2]
  mutagenic call: inactive; negative
Test System: AMES SALMONELLA TYPHIMURIUM, Strain/Indicator: TA100, Metabolic Activation: RAT, LIVER, S-9, AROCLOR 1254, Method: STANDARD PLATE
  mutagenic call: inactive; negative
